The values that follow come from patent US12617762B2, “Carboxy derivatives with antiinflamatory properties” (Sitryx Therapeutics Limited, priority 2019, dated 2026).

Like-named read-outs stand apart in the source and are kept apart here.

What is called EC50 is the concentration needed to bring the measured effect to its halfway point. In general, hepatocyte CLint refers to the rate of metabolic loss divided by the concentration. As usually defined, the half-life is the time in which the quantity being followed falls by half. As usually defined, the IC50 is the concentration that gives 50% inhibition. Low values mean inhibition by little substance, high ones a need for much substance.

Data set [1] deals with NRF2 (nuclear factor erythroid 2-related factor 2). Nature of the data set: NRF2 +/-GSH activation assay (DiscoverX PathHunter NRF2 translocation kit, U2OS cells). The class given is cell-based. The note with it: for NRF2 activation +GSH Emax / NRF2 activation −GSH Emax: normalised to DMF high control. Here is the method:
Measuring Compound Activation Effects on the Anti-Inflammatory Transcription Factor NRF2 in DiscoverX PathHunter NRF2 Translocation Kit
Potency and efficacy of compounds of formula (I) against the target of interest to activate NRF2 (nuclear factor erythroid 2-related factor 2) were determined using the PathHunter NRF2 translocation kit (DiscoverX). The NRF2 translocation assay was run using an engineered recombinant cell line, utilising enzyme fragment complementation to determine activation of the Keap1-NRF2 protein complex and subsequent translocation of NRF2 into the nucleus. Enzyme activity was quantified using a chemiluminescent substrate consumed following the formation of a functional enzyme upon PK-tagged NRF2 translocation into the nucleus.
The assay was run under both +/−GSH (glutathione) conditions to determine the sensitivity of the compounds' NRF2-activating abilities to attenuation by GSH.
Additionally, a defined concentration of DMF was used as the ‘High’ control to normalise test compound activation responses to.
U2OS PathHunter eXpress cells were thawed from frozen prior to plating. Following plating, U2OS cells were incubated for 24 hrs (37° C./5% CO2) in commercial kit provided cell medium.
Following 24 hrs of U2OS incubation, cells were directly treated with an appropriate final concentration of compound, for −GSH conditions or, for +GSH conditions, an intermediate plate containing 6× working concentrations of compound stocks was prepared in a 6 mM working concentration of GSH solution (solubilised in sterile PBS). Following a 30 minute compound-GSH pre-incubation (37° C./5% CO2) for +GSH treatment, plated U2OS cells were incubated with an appropriate final concentration of compound and GSH.
Following compound (+/−GSH) treatment, the U2OS plates were incubated for a further 6 hours (37° C./5% CO2) before detection reagent from the PathHunter NRF2 commercial kit was prepared and added to test plates according to the manufacturer's instructions. Subsequently, the luminescence signal detection was measured in a microplate reader (PHERAstar®, BMG Labtech).
Percentage activation was calculated by normalising the sample data to the high and low controls used within each plate (+/−DMF).

Data set [2] in a line: Hepatocyte stability assay, human. The class given is in vitro ADME. Particulars: human, hepatocytes; for hepatocyte CLint at 10 μM: Hepatocyte stability Clint; for half-life at 10 μM: Hepatocyte stability T½. The source says: (§1) Defrosted cryo-preserved hepatocytes (viability >70%) were used to determine the metabolic stability of a compound via calculation of intrinsic clearance (CIint; a measure of the removal of a compound from the liver in the absence of blood flow and cell binding). Clearance data are particularly important for in vitro work as they can be used in combination with in vivo data to predict the half-life and oral bioavailability of a drug.
(§2) The metabolic stability in hepatocytes assay involves a time-dependent reaction using both positive and negative controls. The cells were pre-incubated at 37° C. then spiked with test compound (and positive control); samples were taken at pre-determined time intervals and were analysed to monitor the change in concentration of the initial drug compound over 60 minutes. A buffer incubation reaction (with no hepatocytes present) acted as a negative control and two cocktail solutions, containing compounds with known high and low clearance values (verapamil/7-hydroxycoumarin and propranolol/diltiazem), acted as positive controls. • 1. The assay was run with a cell concentration of 0.5×10^6 cells/mL in Leibovitz buffer. • 2. All compounds and controls were run in duplicate. • 3. Compound concentration was 10 μM. • 4. All compounds and controls were incubated with both cells and buffer to show turnover was due to hepatic metabolism. • 5. All wells on the incubation plate had 326.7 μL of either cells or buffer added. • 6. Prior to assay, cell and buffer-only incubation plates were preincubated for 10 mins at 37° C. • 7. The assay was initiated by adding compounds, 3.3 μL of 1 mM in 10% DMSO—90% Buffer; final DMSO concentration was 0.1%. • 8. Samples were taken at regular timepoints (0, 5, 10, 20, 40, 60 min) until 60 mins. • 9. Sample volume was 40 μL and was added to 160 μL of crash solvent (acetonitrile with internal standard) and stored on ice. • 10. At the end of the assay, the crash plates were centrifuged at 3500 rpm for 20 mins at 4° C. • 11. 80 μL of clear supernatant was removed and mixed with 80 μL of deionised water before being analysed by LC-MS/MS.
(§3) Raw LC-MS/MS data was exported to, and analysed in, Microsoft Excel for determination of intrinsic clearance. The percentage remaining of a compound was monitored using the peak area of the initial concentration as 100%. Intrinsic clearance and half-life values were calculated using a graph of the natural log of percentage remaining versus the time of reaction in minutes.

Data set [3] in a line: Hepatocyte stability assay, mouse. Particulars: mouse, hepatocytes; for hepatocyte CLint at 10 μM: Hepatocyte stability Clint; for half-life at 10 μM: Hepatocyte stability T½. It is filed as in vitro ADME.
Text: as §1, §2, §3

The test system of data set [4] is IL-1β cytokine output from THP-1s. Nature of the data set: THP-1 AlphaLISA IL-1β cytokine inhibition assay. The note with it: for IC50: Homo sapiens, THP-1, differentiated THP-1 cells, LPS then nigericin. It is filed as cell-based. The gist of the method: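 THP-1 cells differentiated with PMA for 72 h, pre-incubated with compound 30 min, then LPS-primed 24 h and Nigericin-stimulated 1 h (37° C./5% CO2). Supernatant IL-1β measured by AlphaLISA; percentage inhibition normalised to +LPS (high) and −LPS (low) plate controls.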
For orientation: In Alpha technology, singlet oxygen from a donor bead excites a nearby acceptor bead.

Setting [5] is: +GSH, 30 minute compound-GSH pre-incubation, read-out: NRF2 activation +GSH EC50.
The mark [6] stands for this setting: −GSH, U2OS PathHunter cells, 6 hours compound treatment, read-out: NRF2 activation −GSH EC50.

For `C=C(Cc1nc(Cc2ccc3ccccc3c2)no1)C(=O)O` [Example 9, 2-((3-(naphthalen-2-ylmethyl)-1,2,4-oxadiazol-5-yl)methyl)acrylic acid], the EC50 stood at 69.9 µM in data set [1] (setting [5]) and 42.7 µM in data set [1] (setting [6]). Moreover, the “NRF2 activation +GSH Emax” value in data set [1] (+GSH) stood at 44%. Further, the “NRF2 activation −GSH Emax” value in data set [1] (−GSH) is listed as 51%. For the same compound, the figures for the hepatocyte CLint at 10 μM in data set [2] and in data set [3] were 7 µL/min/1e6 cells and 41 µL/min/1e6 cells, respectively. Further, the half-life at 10 μM in data set [2] is 181 min; in data set [3], 25 min. Further, the IC50 in data set [4] is 54.7 µM.
Consider `C=C(Cc1nc(C2CCCCCCC2)no1)C(=O)O` [Example 63, 2-((3-cyclooctyl-1,2,4-oxadiazol-5-yl)methyl)acrylic acid], for which the EC50 was found to be 58 µM in data set [1] (setting [5]) and 25.8 µM in data set [1] (setting [6]). Also, the “NRF2 activation +GSH Emax” value in data set [1] (+GSH) turned out to be 49%. Further, in data set [1] (−GSH), the “NRF2 activation −GSH Emax” value was 114%. The intrinsic metabolic clearance (hepatocyte CLint) at 10 μM in data set [2] is 8 µL/min/1e6 cells; in data set [3], 23 µL/min/1e6 cells. In addition, the results for the half-life at 10 μM in data set [2] and in data set [3] were 169 min and 60 min, respectively. In data set [4], this compound yielded an IC50 of over 100 µM. In addition, the “IL-1β lowering, result in words” value in data set [4] (THP-1 IL-1β assay) is “not effective”.
Regarding `C=C(Cc1nnc(CCCCCCCC)o1)C(=O)O` [Example 2, 2-((5-octyl-1,3,4-oxadiazol-2-yl)methyl)acrylic acid], the EC50 was found to be 26.8 µM in data set [1] (setting [5]) and 19.1 µM in data set [1] (setting [6]). In addition, in data set [1] (+GSH), the “NRF2 activation +GSH Emax” value turned out to be 169%. Also, in data set [1] (−GSH), the “NRF2 activation −GSH Emax” value came out at 176%. The hepatocyte CLint at 10 μM is 95 µL/min/1e6 cells in data set [2] and 74 µL/min/1e6 cells in data set [3]. For the same compound, the results for the half-life at 10 μM in data set [2] and in data set [3] were 15 min and 19 min, respectively. Moreover, inhibition in data set [4] was half-maximal at 36.8 µM (IC50).
In the case of `C=C(Cc1nc(CCCCCCCC)co1)C(=O)O` [Example 39, 2-((4-octyloxazol-2-yl)methyl)acrylic acid], the EC50 was found to be 7.6 µM in data set [1] (setting [5]) and 5.1 µM in data set [1] (setting [6]). Further, the “NRF2 activation +GSH Emax” value in data set [1] (+GSH) came out at 172%. The “NRF2 activation −GSH Emax” value in data set [1] (−GSH) was determined as 234%. Further, the intrinsic clearance (hepatocyte CLint) at 10 μM in data set [2] was 386 µL/min/1e6 cells; in data set [3], over 460 µL/min/1e6 cells. For the same compound, the half-life at 10 μM was 3 min in data set [2] and under 3 min in data set [3]. This compound had a half-maximal inhibitory concentration (IC50) in data set [4] of 8.5 µM.
For `C=C(Cc1nnc(CCCCCCCC)s1)C(=O)O` [Example 37, 2-((5-octyl-1,3,4-thiadiazol-2-yl)methyl)acrylic acid], the EC50 in data set [1] (setting [5]) came to 9.5 µM; in data set [1] (setting [6]), 8.4 µM. Also, the “NRF2 activation +GSH Emax” value in data set [1] (+GSH) stood at 139%. Also, the “NRF2 activation −GSH Emax” value in data set [1] (−GSH) is 162%. Moreover, the hepatocyte CLint at 10 μM in data set [2] is 32 µL/min/1e6 cells; in data set [3], over 481 µL/min/1e6 cells. Moreover, the half-life at 10 μM in data set [2] is 40 min; in data set [3] it was under 3 min. The compound also returned an IC50 in data set [4] of 14.6 µM.
Take `C=C(Cc1nc(CCc2ccc(Cl)cc2)no1)C(=O)O` [Example 5, 2-((3-(4-chlorophenethyl)-1,2,4-oxadiazol-5-yl)methyl)acrylic acid]: the EC50 in data set [1] (setting [5]) came out at 50.4 µM; in data set [1] (setting [6]), 42.4 µM. The “NRF2 activation +GSH Emax” value in data set [1] (+GSH) was determined as 63%. Further, in data set [1] (−GSH), the “NRF2 activation −GSH Emax” value was 74%. Further, the results for the hepatocyte CLint at 10 μM in data set [2] and in data set [3] were 8 µL/min/1e6 cells and 48 µL/min/1e6 cells, respectively. In addition, the results for the half-life at 10 μM in data set [2] and in data set [3] were 174 min and 40 min, respectively. For the same compound, in data set [4], the IC50 was determined as 45.3 µM.
For the compound `C=C(Cc1nc(C2(c3ccc(OC(F)(F)F)cc3)CC2)no1)C(=O)O` [Example 49, 2-((3-(1-(4-(trifluoromethoxy)phenyl)cyclopropyl)-1,2,4-oxadiazol-5-yl)methyl)acrylic acid], the EC50 in data set [1] (setting [5]) was determined as 57.5 µM; in data set [1] (setting [6]) it was 49.2 µM. The “NRF2 activation +GSH Emax” value in data set [1] (+GSH) was found to be 56%. For the same compound, in data set [1] (−GSH), the “NRF2 activation −GSH Emax” value stood at 109%. Also, the intrinsic clearance (hepatocyte CLint) at 10 μM worked out at 8 µL/min/1e6 cells in data set [2] and 15 µL/min/1e6 cells in data set [3]. Also, the results for the half-life at 10 μM in data set [2] and in data set [3] were 172 min and 86 min, respectively. The compound also had an IC50 in data set [4] of 12.4 µM.
Consider `C=C(Cc1nc(CCCCCCCC(F)(F)F)no1)C(=O)O` [Example 11, 2-((3-(8,8,8-trifluorooctyl)-1,2,4-oxadiazol-5-yl)methyl)acrylic acid], for which the EC50 was determined as 13.1 µM in data set [1] (setting [5]) and 11.4 µM in data set [1] (setting [6]). Also, the “NRF2 activation +GSH Emax” value in data set [1] (+GSH) is given as 149%. In addition, in data set [1] (−GSH), the “NRF2 activation −GSH Emax” value stood at 185%. Moreover, the intrinsic clearance (hepatocyte CLint) at 10 μM turned out to be 30 µL/min/1e6 cells in data set [2] and 56 µL/min/1e6 cells in data set [3]. Also, the half-life at 10 μM in data set [2] stood at 42 min; in data set [3] it was 18 min. For the same compound, the IC50 in data set [4] was found to be 8.2 µM.
`C=C(Cc1nc(C2(c3ccc(C4CCCC4)cc3)CC2)no1)C(=O)O` [Example 115]: in data set [2], the hepatocyte CLint at 10 μM was 28 µL/min/1e6 cells and the half-life at 10 μM came to 55 min. In addition, in data set [3], the hepatocyte CLint at 10 μM was 87 µL/min/1e6 cells and the half-life at 10 μM is 15 min. The compound further displayed a 50% inhibitory concentration (IC50) in data set [4] of 7.9 µM.
For `C=C(Cc1nc(C(F)(F)c2cc(Cl)c(F)c(Cl)c2)no1)C(=O)O` [Example 153, 2-((3-((3,5-dichloro-4-fluorophenyl)difluoromethyl)-1,2,4-oxadiazol-5-yl)methyl)acrylic acid], in that order: 23 µL/min/1e6 cells, 62 min, 44 µL/min/1e6 cells, 34 min and 17.3 µM.
Consider `C=C(Cc1nc(-c2ccc(OCCCC)c(F)c2)no1)C(=O)O` [Example 129, 2-((3-(4-butoxy-3-fluorophenyl)-1,2,4-oxadiazol-5-yl)methyl)acrylic acid], for which, in data set [2], the hepatocyte CLint at 10 μM was 67 µL/min/1e6 cells and the half-life at 10 μM came out at 22 min. Besides, in data set [3], the hepatocyte CLint at 10 μM was over 460 µL/min/1e6 cells and the half-life at 10 μM is under 3 min. The compound further returned an IC50 in data set [4] of 20.6 µM.
For `C=C(Cc1nc(C(F)(F)c2ccc(C)c(Cl)c2)no1)C(=O)O` [Example 151, 2-((3-((3-chloro-4-methylphenyl)difluoromethyl)-1,2,4-oxadiazol-5-yl)methyl)acrylic acid], in that order: 53 µL/min/1e6 cells, 23 min, 105 µL/min/1e6 cells, 19 min and 22.7 µM.
